Results as given in BindingDB's records for doi:10.1016/S0960-894X(97)10107-X (1997).
pIC50: −log10 of the molar value.

biological target: 1,3-beta-glucan synthase (Candida albicans); assay: In vitro inhibition of 1,3-beta-glucan synthase in Candida albicans membrane assay.

Compared with C=Cc1cc(C[C@H](O)[C@@H]2NC(=O)[C@@H]3C[C@@H](O)CN3C(=O)[C@H]([C@@H](C)O)NC(=O)[C@H](NC(=O)CCCCCCCCC(C)CC(C)CC)C[C@@H](O)CNC(=O)[C@@H]3[C@@H](O)CCN3C(=O)[C@H]([C@@H](O)CC(N)=O)NC2=O)ccc1O (some centres undefined) [Pneumocandin analogue], CCC(C)CC(C)CCCCCCCCC(=O)N[C@@H]1C[C@@H](O)CNC(=O)[C@@H]2[C@@H](O)CCN2C(=O)[C@H]([C@@H](O)CC(N)=O)NC(=O)[C@H]([C@@H](O)Cc2ccc(O)c(C=O)c2)NC(=O)[C@@H]2C[C@@H](O)CN2C(=O)[C@H]([C@@H](C)O)NC1=O (some centres undefined) [Pneumocandin analogue] is lower in pIC50: 7.10 for the first, under 5.30 for the second. The first is the more potent here.

Compared with CCC(C)CC(C)CCCCCCCCC(=O)N[C@@H]1C[C@@H](O)CNC(=O)[C@@H]2[C@@H](O)CCN2C(=O)[C@H]([C@@H](O)CC(N)=O)NC(=O)[C@H]([C@@H](O)Cc2ccc(O)c(/C=C/C(=O)OC)c2)NC(=O)[C@@H]2C[C@@H](O)CN2C(=O)[C@H]([C@@H](C)O)NC1=O (some centres undefined) [Pneumocandin analogue], CCC(C)CC(C)CCCCCCCCC(=O)N[C@@H]1C[C@@H](O)CNC(=O)[C@@H]2[C@@H](O)CCN2C(=O)[C@H]([C@@H](O)CC(N)=O)NC(=O)[C@H]([C@@H](O)Cc2ccc(O)c(C(=O)OC)c2)NC(=O)[C@@H]2C[C@@H](O)CN2C(=O)[C@H]([C@@H](C)O)NC1=O (some centres undefined) [Pneumocandin analogue] is 1.30 log units lower in pIC50: 6.82 for the first, 5.52 for the second.

Compared with CCC(C)CC(C)CCCCCCCCC(=O)N[C@@H]1C[C@@H](O)CNC(=O)[C@@H]2[C@@H](O)CCN2C(=O)[C@H]([C@@H](O)CC(N)=O)NC(=O)[C@H]([C@@H](O)Cc2ccc(O)c(CCN)c2)NC(=O)[C@@H]2C[C@@H](O)CN2C(=O)[C@H]([C@@H](C)O)NC1=O (some centres undefined) [Pneumocandin analogue], CCC(C)CC(C)CCCCCCCCC(=O)N[C@@H]1C[C@@H](O)CNC(=O)[C@@H]2[C@@H](O)CCN2C(=O)[C@H]([C@@H](O)CC(N)=O)NC(=O)[C@H]([C@@H](O)Cc2ccc(O)c(CCO)c2)NC(=O)[C@@H]2C[C@@H](O)CN2C(=O)[C@H]([C@@H](C)O)NC1=O (some centres undefined) [Pneumocandin analogue] is 0.52 log units higher in pIC50: 6.70 for the first, 7.22 for the second.

Going from CCC(C)CC(C)CCCCCCCCC(=O)N[C@@H]1C[C@@H](O)CNC(=O)[C@@H]2[C@@H](O)CCN2C(=O)[C@H]([C@@H](O)CC(N)=O)NC(=O)[C@H]([C@@H](O)Cc2ccc(O)c(I)c2)NC(=O)[C@@H]2C[C@@H](O)CN2C(=O)[C@H]([C@@H](C)O)NC1=O (some centres undefined) [Pneumocandin analogue] to CCC(C)CC(C)CCCCCCCCC(=O)N[C@@H]1C[C@@H](O)CNC(=O)[C@@H]2[C@@H](O)CCN2C(=O)[C@H]([C@@H](O)CC(N)=O)NC(=O)[C@H]([C@@H](O)Cc2ccc(O)c(N)c2)NC(=O)[C@@H]2C[C@@H](O)CN2C(=O)[C@H]([C@@H](C)O)NC1=O (some centres undefined) [Pneumocandin analogue], the pIC50 rises from 7.00 to 7.30 (0.30 log units). The second is the more potent here.

First: CCC(C)CC(C)CCCCCCCCC(=O)N[C@@H]1C[C@@H](O)CNC(=O)[C@@H]2[C@@H](O)CCN2C(=O)[C@H]([C@@H](O)CC(N)=O)NC(=O)[C@H]([C@@H](O)Cc2ccc(O)c([N+](=O)[O-])c2)NC(=O)[C@@H]2C[C@@H](O)CN2C(=O)[C@H]([C@@H](C)O)NC1=O (some centres undefined) [Pneumocandin analogue]
Second: CCc1cc(C[C@H](O)[C@@H]2NC(=O)[C@@H]3C[C@@H](O)CN3C(=O)[C@H]([C@@H](C)O)NC(=O)[C@H](NC(=O)CCCCCCCCC(C)CC(C)CC)C[C@@H](O)CNC(=O)[C@@H]3[C@@H](O)CCN3C(=O)[C@H]([C@@H](O)CC(N)=O)NC2=O)ccc1O (some centres undefined) [Pneumocandin analogue]
The pIC50 of the first is 1.19 log units lower: 5.40 for the first, 6.59 for the second.

First: CCC(C)CC(C)CCCCCCCCC(=O)N[C@@H]1C[C@@H](O)CNC(=O)[C@@H]2[C@@H](O)CCN2C(=O)[C@H]([C@@H](O)CC(N)=O)NC(=O)[C@H]([C@@H](O)Cc2ccc(O)cc2)NC(=O)[C@@H]2C[C@@H](O)CN2C(=O)[C@H]([C@@H](C)O)NC1=O (some centres undefined) [Pneumocandin analogue]
Second: CCCc1cc(C[C@H](O)[C@@H]2NC(=O)[C@@H]3C[C@@H](O)CN3C(=O)[C@H]([C@@H](C)O)NC(=O)[C@H](NC(=O)CCCCCCCCC(C)CC(C)CC)C[C@@H](O)CNC(=O)[C@@H]3[C@@H](O)CCN3C(=O)[C@H]([C@@H](O)CC(N)=O)NC2=O)ccc1O (some centres undefined) [Pneumocandin analogue]
The pIC50 of the first is 0.93 log units higher: 7.15 for the first, 6.22 for the second. The first is the more potent here.

Compared with CCC(C)CC(C)CCCCCCCCC(=O)N[C@@H]1C[C@@H](O)[C@@H](O)NC(=O)[C@@H]2[C@@H](O)CCN2C(=O)[C@H]([C@@H](O)CC(N)=O)NC(=O)[C@H]([C@@H](O)[C@H](O)c2cc(I)c(O)c(I)c2)NC(=O)[C@@H]2C[C@@H](O)CN2C(=O)[C@H]([C@@H](C)O)NC1=O (some centres undefined) [Pneumocandin analogue], CCC(C)CC(C)CCCCCCCCC(=O)N[C@@H]1C[C@@H](O)[C@@H](O)NC(=O)[C@@H]2[C@@H](O)CCN2C(=O)[C@H]([C@@H](O)CC(N)=O)NC(=O)[C@H]([C@@H](O)[C@H](O)c2ccc(O)c(I)c2)NC(=O)[C@@H]2C[C@@H](O)CN2C(=O)[C@H]([C@@H](C)O)NC1=O (some centres undefined) [Pneumocandin analogue] is higher in pIC50: under 5.00 for the first, 7.00 for the second.

Compared with CCC(C)CC(C)CCCCCCCCC(=O)N[C@@H]1C[C@@H](O)[C@@H](O)NC(=O)[C@@H]2[C@@H](O)CCN2C(=O)[C@H]([C@@H](O)CC(N)=O)NC(=O)[C@H]([C@@H](O)[C@H](O)c2ccc(O)c(N)c2)NC(=O)[C@@H]2C[C@@H](O)CN2C(=O)[C@H]([C@@H](C)O)NC1=O (some centres undefined) [Pneumocandin analogue], CCC(C)CC(C)CCCCCCCCC(=O)N[C@@H]1C[C@@H](O)[C@@H](O)NC(=O)[C@@H]2[C@@H](O)CCN2C(=O)[C@H]([C@@H](O)CC(N)=O)NC(=O)[C@H]([C@@H](O)[C@H](O)c2ccc(O)c([N+](=O)[O-])c2)NC(=O)[C@@H]2C[C@@H](O)CN2C(=O)[C@H]([C@@H](C)O)NC1=O (some centres undefined) [Pneumocandin analogue] is 1.86 log units lower in pIC50: 7.40 for the first, 5.54 for the second. The first is the more potent here.

Going from CCC(C)CC(C)CCCCCCCCC(=O)N[C@@H]1C[C@@H](O)[C@@H](O)NC(=O)[C@@H]2[C@@H](O)CCN2C(=O)[C@H]([C@@H](O)CC(N)=O)NC(=O)[C@H]([C@@H](O)[C@H](O)c2ccc(O)c(NC(=O)CCC(=O)O)c2)NC(=O)[C@@H]2C[C@@H](O)CN2C(=O)[C@H]([C@@H](C)O)NC1=O (some centres undefined) [Pneumocandin analogue] to CCC(C)CC(C)CCCCCCCCC(=O)N[C@@H]1C[C@@H](O)[C@@H](O)NC(=O)[C@@H]2[C@@H](O)CCN2C(=O)[C@H]([C@@H](O)CC(N)=O)NC(=O)[C@H]([C@@H](O)[C@H](O)c2ccc(O)c(NC(=O)CCN)c2)NC(=O)[C@@H]2C[C@@H](O)CN2C(=O)[C@H]([C@@H](C)O)NC1=O (some centres undefined) [Pneumocandin analogue], the pIC50 rises from 6.82 to 7.15 (0.33 log units).

CCC(C)CC(C)CCCCCCCCC(=O)N[C@@H]1C[C@@H](O)[C@@H](O)NC(=O)[C@@H]2[C@@H](O)CCN2C(=O)[C@H]([C@@H](O)CC(N)=O)NC(=O)[C@H]([C@@H](O)[C@H](O)c2ccc(O)c(NC(=O)CN)c2)NC(=O)[C@@H]2C[C@@H](O)CN2C(=O)[C@H]([C@@H](C)O)NC1=O (some centres undefined) [Pneumocandin analogue] gave a pIC50 of 7.46.
